Measurements: PMC9040055, “Triterpenes from Pholiota populnea as Cytotoxic Agents and Chemosensitizers to Overcome Multidrug Resistance of Cancer Cells” (Journal of Natural Products, 2022)
Entries after “also recorded” stand apart in the source; their conditions may differ. Read-outs that look alike come from different tables or passages of the source.

What was measured:
[1] = test system: Colo 320/MDR-LRP resistant colon adenocarcinoma cells; test: MTT assay for cytotoxic effect, Colo 320; assay type: cell-based, human; conditions: 24 h incubation, triplicate, read-out: Colo320 (IC50 μM) mean
Method: (§1) The human colon adenocarcinoma cell lines, the Colo 205 (ATCC-CCL-222) doxorubicin-sensitive parent and Colo 320/MDR-LRP (ATCC-CCL-220.1) resistant to anticancer agents expressing ABCB1, were purchased from LGC Promochem (Teddington, UK). […] The cell lines were incubated in a humidified atmosphere (5% CO2, 95% air) at 37 °C. The effects of increasing concentrations of the compounds on cell growth were tested in 96-well flat-bottomed microtiter plates. The 2-fold serial dilutions of the tested compounds were made starting with 100 μM. Then, 10^4 human colonic adenocarcinoma cells in 100 μL of the medium (RPMI-1640) were added to each well, except for the medium control wells. The adherent human embryonic lung fibroblast cell line (10^4/well) was seeded in EMEM medium in 96-well flat-bottomed microtiter plates for 4 h before the assay. The serial dilutions of the compounds were made in a separate plate starting with 100 μM and then transferred to the plates containing the adherent corresponding cell line. Culture plates were incubated at 37 °C for 24 h; at the end of the incubation period, 20 μL of MTT (thiazolyl blue tetrazolium bromide) solution (from a 5 mg/mL stock solution) was added to each well. After incubation at 37 °C for 4 h, 100 μL of sodium dodecyl sulfate (SDS) solution (10% SDS in 0.01 M HCl) was added to each well, and the plates were further incubated at 37 °C overnight. Cell growth was determined by measuring the optical density (OD) at 540 nm (ref 630 nm) with a Multiscan EX ELISA reader (Thermo Labsystems, Cheshire, WA, USA). […] IC50 values and the SD of triplicate experiments were calculated by using GraphPad Prism software version 5.00 for Windows with nonlinear regression curve fit (GraphPad Software, San Diego, CA, USA; www.graphpad.com).

[2] = MTT assay for cytotoxic effect, MRC-5; assay type: cell-based, human; conditions: human
Method: as §1

[3] = test system: Colo 205 doxorubicin-sensitive colon adenocarcinoma cells; test: MTT assay for cytotoxic effect, Colo 205; assay type: cell-based, human; conditions: 24 h incubation, triplicate, read-out: Colo205 (IC50 μM) mean
Method: as §1

[4] = target: P-glycoprotein (ABCB1) in MDR Colo 320 cells (Homo sapiens, UniProt P08183); test: Rhodamine 123 accumulation assay (P-gp efflux pump inhibition); assay type: cell-based
Chain of P-glycoprotein (ABCB1) in MDR Colo 320 cells (P08183 whole entry): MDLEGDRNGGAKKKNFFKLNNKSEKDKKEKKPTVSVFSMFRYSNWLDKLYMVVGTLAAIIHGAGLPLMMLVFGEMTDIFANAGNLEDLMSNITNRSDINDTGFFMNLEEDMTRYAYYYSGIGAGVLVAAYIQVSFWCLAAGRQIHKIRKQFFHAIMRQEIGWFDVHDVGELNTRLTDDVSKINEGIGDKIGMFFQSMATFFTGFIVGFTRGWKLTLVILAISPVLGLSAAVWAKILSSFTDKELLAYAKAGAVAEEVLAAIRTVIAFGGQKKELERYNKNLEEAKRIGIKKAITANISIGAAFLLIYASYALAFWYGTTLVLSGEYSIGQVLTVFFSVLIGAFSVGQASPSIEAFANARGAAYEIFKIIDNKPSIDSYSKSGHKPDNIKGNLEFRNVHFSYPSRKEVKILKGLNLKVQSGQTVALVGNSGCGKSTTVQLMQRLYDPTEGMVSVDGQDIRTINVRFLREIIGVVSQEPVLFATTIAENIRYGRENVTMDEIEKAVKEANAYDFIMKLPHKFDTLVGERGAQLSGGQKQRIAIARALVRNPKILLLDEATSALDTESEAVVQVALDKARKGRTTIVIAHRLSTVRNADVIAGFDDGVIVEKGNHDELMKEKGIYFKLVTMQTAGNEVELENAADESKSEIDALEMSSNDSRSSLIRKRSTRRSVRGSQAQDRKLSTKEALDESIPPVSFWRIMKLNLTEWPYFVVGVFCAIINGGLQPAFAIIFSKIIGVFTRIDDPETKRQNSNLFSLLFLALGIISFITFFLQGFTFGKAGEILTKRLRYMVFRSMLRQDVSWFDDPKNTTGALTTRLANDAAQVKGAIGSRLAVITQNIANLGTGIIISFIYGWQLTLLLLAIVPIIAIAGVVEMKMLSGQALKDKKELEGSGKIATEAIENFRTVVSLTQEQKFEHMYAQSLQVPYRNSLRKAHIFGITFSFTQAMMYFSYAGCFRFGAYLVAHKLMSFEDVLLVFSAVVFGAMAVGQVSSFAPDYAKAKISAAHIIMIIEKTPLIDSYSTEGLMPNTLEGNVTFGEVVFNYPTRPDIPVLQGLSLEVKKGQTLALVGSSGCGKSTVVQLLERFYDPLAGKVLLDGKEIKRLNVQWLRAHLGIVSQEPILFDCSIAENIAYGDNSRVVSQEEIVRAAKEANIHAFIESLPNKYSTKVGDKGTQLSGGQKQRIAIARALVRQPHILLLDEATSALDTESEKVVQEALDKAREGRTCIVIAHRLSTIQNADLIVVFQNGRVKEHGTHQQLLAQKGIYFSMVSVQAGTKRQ
Method: The inhibitory activities of compounds 1–3, 5, and 6 on efflux function were evaluated by measuring the intracellular accumulation of rhodamine 123, a well-known P-glycoprotein substrate fluorescent dye, within the Colo320 MDR cells. Tariquidar, a strong P-gp inhibitor, was used as positive control. All tested compounds were dissolved in DMSO, and the final concentration (2.00%) of the solvent was investigated for any effect on the retention of rhodamine 123. […] The cell numbers of the human colon adenocarcinoma cell lines were adjusted to 2 × 10^6 cells/mL, resuspended in serum-free RPMI 1640 medium, and distributed in 0.5 mL aliquots into Eppendorf centrifuge tubes. […] DMSO at 2% v/v was used as solvent control. Next, 10 μL (5.2 μM final concentration) of the fluorochrome and ABCB1 substrate rhodamine 123 (Sigma) were added to the samples, and the cells were incubated for a further 20 min at 37 °C, washed twice, and resuspended in 1 mL of PBS for analysis. The fluorescence of the cell population was measured with a PartecCyFlow flow cytometer (Partec, Münster, Germany). The FAR was calculated as the quotient between FL-1 of the treated/untreated resistant Colo 320 cell line over the treated/untreated sensitive Colo 205 cell line according to the following equation: [drawing 2]

[5] = test system: Colo 320 colon adenocarcinoma cell line; test: Checkerboard combination assay with doxorubicin; assay type: cell-based, human; conditions: for interaction (type of interaction with doxorubicin): Colo 320, based on combination indices; for CI at ED50 (combination index value at the 50% growth inhibition dose): with doxorubicin, Colo 320, 72 h, at best ratio
Method: A checkerboard microplate combination assay was performed, which is a widely used in vitro method for the assessment of drug interactions. […] The assay was carried out on the Colo 320 colon adenocarcinoma cell line. The final concentration of the compounds and doxorubicin used in the combination experiment was chosen in accordance with their cytotoxicity toward this cell line. The dilutions of doxorubicin were made in a horizontal direction in 100 μL, and the dilutions of the compounds vertically in the microtiter plate in a 50 μL volume. Then, 6 × 10^3 of Colo 320 cells in 50 μL of the medium were added to each well, except for the medium control wells. The plates were incubated for 72 h at 37 °C in a 5% CO2 atmosphere. The cell growth rate was determined after MTT staining. At the end of the incubation period, 20 μL of MTT solution (from a stock solution of 5 mg/mL) was added to each well. After incubation at 37 °C for 4 h, 100 μL of SDS solution (10% in 0.01 M HCI) was added to each well, and the plates were further incubated at 37 °C overnight. OD was measured at 540 nm (ref 630 nm) with a Multiscan EX ELISA reader.

[6] = test system: MRC-5 embryonic lung fibroblast cell line; test: MTT assay for cytotoxic effect, MRC-5; assay type: cell-based, human; conditions: MTT, 24 h incubation, triplicate
Method: as §1

[7] = test system: resistant (Colo 320) human colon adenocarcinoma cells; set-up: method as in PMID 33809760; conditions: resistant Colo 320 cells; cited from earlier work
[8] = test system: sensitive (Colo 205) human colon adenocarcinoma cells; set-up: method as in PMID 33809760; conditions: sensitive Colo 205 cells; cited from earlier work
[9] = test system: panel of 71 human cancer cells from 15 tumor types; set-up: method as in PMID 29931585; conditions: against 27 cell lines of a panel of 71 human cancer cells; read-out: cytotoxicity IC50; cited from earlier work
[10] = MRC-5 embryonic lung fibroblast cells, MTT, 24 h incubation, triplicate, read-out: MRC-5 (IC50 μM) mean

Compound	IC50 ([1]; Homo sapiens, COLO 320, 24 h)	IC50 at 24 h ([2]; MRC-5 (IC50 μM) mean)	IC50 ([3]; Homo sapiens, COLO 205, 24 h)	FAR (fluorescence activity ratio) ([4]; human, 20 min, 20 μM)	FL-1 ([4]; human, 20 min, 20 μM)	Peak Ch ([4]; human, 20 min, 20 μM)	interaction (type of interaction with doxorubicin) [5]	CI at ED50 (combination index value at the 50% growth inhibition dose) [5]	IC50 [1]	IC50 [3]	also measured
CC(=O)O[C@H]1[C@H](OC(=O)C[C@](C)(O)CC(=O)O)C[C@]2(C)C3=C(C(=O)C[C@H]2C1(C)C)[C@]1(C)CC[C@H]([C@H](C)CCC(=O)C(C)(C)O)[C@@]1(C)CC3 [compound 1, pholiol A]	> 100 µM	> 100 µM	> 100 µM	3.418	39.600	42.200	–	–	–	–	–
COC(=O)C[C@@](C)(O)CC(=O)O[C@@H]1C[C@]2(C)C3=C(C(=O)C[C@H]2C(C)(C)[C@H]1OC(C)=O)[C@]1(C)CC[C@H]([C@H](C)CCC(=O)C(C)(C)O)[C@@]1(C)CC3 [compound 2, pholiol B]	–	–	–	6.880	79.700	77.700	synergistic	0.348	> 25 µM	> 25 µM	interaction (type of interaction with doxorubicin) ([5]; listed as pholiol B (2)): synergism; IC50 ([1]; listed as Pholiol B (2)): 61.5 µM; IC50 ([3]; listed as Pholiol B (2)): 67.9 µM
CC(=O)O[C@H]1[C@H](OC(=O)C[C@](C)(O)CC(=O)O)C[C@]2(C)C3=C(CC[C@H]2C1(C)C)[C@]1(C)CC[C@H]([C@H](C)CCC(=O)C(C)(C)O)[C@@]1(C)[C@H](O)C3 [compound 3, pholiol C]	> 100 µM	> 100 µM	> 100 µM	0.967	11.200	18.400	–	–	–	–	–
COC(=O)C[C@@](C)(O)CC(=O)O[C@@H]1C[C@]2(C)C3=C(CC[C@H]2C(C)(C)[C@H]1OC(C)=O)[C@]1(C)CC[C@H]([C@H](C)CCC(=O)C(C)(C)O)[C@@]1(C)[C@H](O)C3 [compound 4, pholiol D]	48.9 µM	–	–	–	–	–	synergistic	0.660	> 25 µM	> 25 µM	interaction (type of interaction with doxorubicin) ([5]; listed as pholiol D (4)): Synergism; IC50 ([3]; listed as Pholiol D (4)): 51.4 µM
C/C(=C\CC/C=C(\C)CC/C=C(\C)CC[C@H](O)C(C)(C)O)CC/C=C(\C)CC[C@H](O)C(C)(C)O [compound 5, (3S,6E,10E,14E,18E,22S)-2,3,22,23-tetrahydroxy-2,6,10,15,19,23-hexamethyl-6,10,14,18-tetracosatetraene]	27.5 µM	–	26.7 µM	–	–	–	very strong synergistic; also recorded: synergistic	0.082	> 25 µM	> 25 µM	interaction (type of interaction with doxorubicin) ([5]; listed as compound 5): very strong synergism; IC50 [6]: > 25 µM; IC50 at 24 h [2, 10]: 29.1 µM; FAR (fluorescence activity ratio) ([4]; conc. 20 μM, rhodamine 123, Colo 320 vs Colo 205): 6.638; P-gp MDR efflux pump inhibitory activity (in words) ([4]; resistant Colo320 cells, rhodamine 123 accumulation): inhibition of P-gp MDR efflux pump activity; also recorded: capacity to inhibit the efflux-pump; also recorded: moderate P-gp inhibitory activity
CC(C)[C@@H](C)/C=C/[C@@H](C)[C@H]1CC[C@H]2C3=CC=C4C[C@@H](O)CC[C@]4(C)[C@H]3CC[C@]12C [compound 6, ergosterol]	–	0.5 µM	–	–	–	–	–	–	–	–	interaction (type of interaction with doxorubicin) ([5]; listed as ergosterol (6)): additive effect; also recorded: nearly additive
COc1cccc2c1C(=O)c1c(O)c3c(c(O)c1C2=O)C[C@@](O)(C(=O)CO)C[C@@H]3O[C@H]1C[C@H](N)[C@H](O)[C@H](C)O1 [doxorubicin, reference compound]	–	–	–	–	–	–	–	–	7.4 µM	2.5 µM	IC50 at 24 h [2, 10]: > 20 µM
CC(C)[C@@H](C)C=C[C@@H](C)[C@H]1CC[C@H]2C3=CCC4CC(=O)CC[C@]4(C)[C@H]3CC[C@]12C (stereo partly shown) [ergosta-7,22-diene-3-one]	–	–	–	–	–	–	–	–	–	–	IC50 [7]: 8.4 ± 1.1 µM; IC50 [8]: 11.6 ± 1.7 µM
CC(C)=CCC[C@@H](C)[C@@H]1CC[C@]2(C)C3=C(CC[C@@]12C)[C@@]1(C)CC[C@H](O)C(C)(C)[C@@H]1CC3 [euphol]	–	–	–	–	–	–	–	–	–	–	IC50 [9]: < 10 µM
COc1cc2c(cc1OC)CN(CCc1ccc(NC(=O)c3cc(OC)c(OC)cc3NC(=O)c3cnc4ccccc4c3)cc1)CC2 [tariquidar, reference compound]	–	–	–	–	–	–	–	–	–	–	FAR (fluorescence activity ratio) ([4]; conc. 0.2 μM, positive control, rhodamine 123): 5.533
